How the values were obtained:
purified human C1q = experiment: Inhibition of C1q binding, reverse ELISA with PAP immune complexes; details: for inhibition of C1q binding, ranking in words: comment on Table 1
Source text: (§1) For this reason, a “reverse ELISA” technique was used to assess binding of the Fc region to ligands that bind to immune complexed IgG Fc. In a reverse ELISA, the enzyme (e.g., HRP) is not covalently conjugated to the Fc portion of the secondary antibody. Rather, a preformed immune complex of peroxidase-rabbit (or mouse) anti-peroxidase IgG (“PAP” complex) is used. […] In these experiments, an Fc CH2-CH3 cleft binding ligand (e.g., purified human C1q) was bound to microwell plates. In the absence of competitor, PAP complexes bound to the immobilized ligand and the reaction between HRP and its substrate produced a signal. This signal was reduced by polypeptides and compounds provided herein that inhibited PAP binding to the immobilized ligand.
PAP complexes were formed mixing 2 μl of rabbit anti-peroxidase (Sigma Chemicals, St. Louis, Mo.) with 50 μl of peroxidase (Sigma-Aldrich, St. Louis, Mo.) in 1 ml distilled water. PAP (100 μl) were pre-incubated with 100 μl of peptide for one hour, 100 μl were pre-incubated with 100 μl of peptide or human C1q (Quidel Corp., San Diego, Calif.) for one hour. The C1q/PAP and peptide/PAP mixtures (100 μl) were incubated with C1q coated plates for 30 minutes. After washing, plates were incubated with ATBS (Quidel Corp.) for 15 minutes and read at 405 nm.

FcγIIb = experiment: Inhibition of FcR binding, reverse ELISA with PAP immune complexes; details: PAP pre-incubated with peptide one hour, one hour on FcγR coated plates; lower OD = more inhibition; positive control 1.394
Source text: as §1
(§2) Once the reverse ELISA protocol was established using the C1q assay, the assay was redesigned using […], FcγIIb, and FcγIII in place of C1q. Highly purified FcγIIa, FcγIIb and FcγIII were immunoadsorbed onto plastic microwells. After optimizing the FcγR reverse ELISA system, simple competitive inhibition experiments using polypeptides provided herein were conducted to investigate their ability to inhibit binding of immune complexes to purified FcγR.
(§3) Falcon microtiter plates were coated with 1:10 dilutions of highly purified FcγIIa, FcγIIb and FcγIII and incubated for 24 hours. The plates were washed and then blocked with 5×BSA blocking solution (Alpha Diagnostic International, San Antonio, Tex.) for 24 hours. PAP immune complexes were formed as described above. PAP (100 μl) were pre-incubated with 100 μl of peptide for one hour. PAP/peptide mixtures were added to the FcγR coated plates and incubated for one hour. After washing, plates were incubated with ABTS substrate for 15 minutes and read at 405 nm.

FcγIII = experiment: as above; details: PAP pre-incubated with peptide one hour, one hour on FcγR coated plates; lower OD = more inhibition; positive control 1.588
Source text: as §1, §2, §3

FcγIIa = experiment: as above; details: PAP pre-incubated with peptide one hour, one hour on FcγR coated plates; lower OD = more inhibition; positive control 1.599
Source text: as §1, §2, §3

[1] = tested on: human wt β amyloid peptide 1-40; experiment: Inhibition of immune complexed IgG binding to wt β-amyloid peptide, reverse ELISA; details: for Wt 1-40 β-amyloid peptide (read at 405 nm): PAP pre-incubated with peptide one hour, 60 minutes on β-amyloid coated plates (33 μg/ml), positive control 3.278, substrate only 0.061
Source text: as §1
Different fragments of the Aβ peptide contribute to the amyloid plaques pathognomic for AD, and these Aβ fragments appear to stimulate microglial activation and subsequent AD neuropathology. Thus, experiments were conducted to test Aβ 1-40 for binding to immune complexes, and to determine whether the inhibitors described herein can inhibit binding of PAP immune complexes to Aβ peptide. PAP complexes were prepared by mixing 2 μl of rabbit anti-peroxidase with 50 μl of peroxidase in 1 ml distilled water. PAP (100 μl) were pre-incubated with 100 μl of peptide for one hour. Control PAP (200 μl) also were incubated for one hour, and 100 μl of either PAP or PAP/peptide was added to Falcon microtiter plates that had been coated for 24 hours with 33 μg/ml human wt β amyloid peptide 1-40 (amyloid precursor protein (APP) fragment 1-40; Sigma-Aldrich) having the sequence […]Ans-Lys-Gly-Ale-[…](SEQ ID NO:39). The PAP or peptide/PAP mixtures were incubated on the β-amyloid peptide coated plates for 60 minutes. After washing, plates were incubated with ATBS for 15 minutes and read at 405 nm.

[2] = tested on: human wt tau protein (441 residues); experiment: Inhibition of immune complexed IgG binding to wt tau, reverse ELISA; details: for Wt tau protein (read at 405 nm): PAP pre-incubated with peptide one hour, 60 minutes on tau coated plates (16.7 μg/ml), positive control 0.695, substrate only 0.060
Source text: as §1
PAP complexes were formed by mixing 2 μl of rabbit anti-peroxidase with 50 μl of peroxidase in 1 ml distilled water. PAP (100 μl) were pre-incubated with 100 μl of peptide for one hour. Control PAP (200 μl) also was incubated for one hour. 100 μl of either PAP or PAP/peptide was added to Falcon microtiter plates that had been coated for 24 hours with 16.7 μg/ml human wt tau protein (441 residues; Sigma-Aldrich). The PAP or peptide/PAP mixtures (100 μl) were added after one hour to tau coated plates and incubated for 60 minutes. After washing, plates were incubated with ATBS for 15 minutes, and read at 405 nm.

FcR = experiment: Inhibition of FcR binding to PAP; details: comment on Table 2
Experimental: as §2, §3

IgG Fc = experiment: Binding of SEQ ID NO:16 to IgG Fc, alanine substitution; details: alanine substitution of SEQ ID NO:16 Val-13 or Trp-14

Row | Sequence | inhibition of C1q binding, ranking in words (purified human C1q) | FcγIIb (read at 405 nm) (FcγIIb) | FcγIII (read at 405 nm) (FcγIII) | Wt 1-40 β-amyloid peptide (read at 405 nm) [1] | Wt tau protein (read at 405 nm) [2] | further results
1 | APPCARHLGELVWCT | next best result |  |  |  |  | 
2 | DCAFHLGELVWCT |  | 0.510 | 0.810 |  |  | FcγIIa (read at 405 nm) (FcγIIa): 0.660
3 | APPCAFHLGELVWCT |  | 0.380 | 0.880 |  |  | 
4 | DCAWHLGELVWCT |  |  |  | 0.151 | 0.322 | inhibition of human wt β amyloid peptide binding to PAP, ranking in words ([1]; comment on Table 4): greatest inhibition; OD 405 nm (purified human C1q; PAP pre-incubated with peptide or C1q for one hour, 30 minutes on C1q coated plates, lower OD = more inhibition, positive control 2.355): 1.100
5 | APPCAWHLGELVWCT |  |  | 0.530 |  |  | 
6 | APPDCAWHLGELVWCT | greatest inhibition of C1q binding, almost equaling C1q itself |  | 0.670 | 0.885 | 0.059 | inhibition of human wt tau protein binding to PAP, ranking in words ([2]; comment on Table 3): greatest inhibition; inhibition of FcR binding to PAP, ranking in words (FcR): greatest inhibition; ΔΔG, disruption of binding (IgG Fc): ≥ 2.0 kcal/mol

Source: US20080207498A1, “Methods for Treating Alzheimer's Disease” (priority 2005, published 2008)
